Results reported in patent US20110165076A1, “NOVEL [F-18]- LABELLED L-GLUTAMIC ACID AND L-GLUTAMINE DERIVATIVES (I), USE THEREOF AND METHOD FOR THEIR PRODUCTION” (BAYER SCHERING PHARMA AKTIENGESELLSCHAFT, priority 2008, published 2011).
One block for each molecule: values may come before it.

Columns and labels:
A549 cells = assay: Competition cell experiment: uptake of tracer 4R/S-[F-18]F-L-glutamic acid in presence of competitor; assay type: cell-based, human; conditions: competitor 1 mM; for % Tracer uptake: A549 cells, 10 min incubation with 0.250 MBq 4R/S-[F-18]F-L-Glu in PBS buffer; for inhibition of tracer uptake (competition): tracer 4R/S-[F-18]F-L-glutamic acid
Protocol: The uptake of the glutamic acid derivatives according to the invention into tumour cells was investigated in cell experiments. Here, the uptake of a radiolabelled glutamic acid derivative (4R/S—[F-18]F-L-glutamic acid) was examined in the presence of the compounds according to the invention and control susbtances (competition experiments). The compounds according to the invention were employed in excess (1 mM) over 4R/S—[F-18]F-L-glutamic acid (tracer).

A549 tumours = assay: Organ distribution experiment in mice bearing A549 tumours; assay type: in vivo; conditions: for % dose/g adrenals / % dose/g blood / % dose/g bone / % dose/g brain / % dose/g fat / % dose/g heart / % dose/g intestine / % dose/g kidney / % dose/g liver / % dose/g lung / % dose/g muscle / % dose/g ovary / % dose/g pancreas / % dose/g skin / % dose/g spleen / % dose/g stomach / % dose/g tail / % dose/g thyroid / % dose/g tumour / % dose/g uterus: i.v. 250 kBq
A549 tumour = assay: PET/CT imaging in mice bearing A549 tumours; assay type: in vivo; conditions: 60 min after i.v. 10 MBq, 20 min acquisition
H460 tumour = assay: PET in rats bearing H460 tumours; assay type: in vivo; conditions: 80 min after i.v. 18 MBq, 20 min acquisition
[1] = tested on: A549 and H460 tumour cells; assay: Cell uptake of F-18-labelled glutamic acid derivative in tumour cells; conditions: for cellular uptake (FIG. 2): after 30 min
Excerpt: Following labelling with F-18, (2S,4S)-2-amino-4-(3-[F-18]fluoropropyl)pentanedioic acid was examined in cell experiments with A549 and H460 tumour cells (both human non-small-cell bronchial carcinoma cell lines).

SMILES: NC(CC(F)C(=O)O)C(=O)O [(4R/S)-fluoro-D/L-Glu]
% Tracer uptake (A549 cells): 16.3%

% dose/g adrenals (A549 tumours; 0.25 h): 0.94 % dose/g
% dose/g adrenals (A549 tumours; 0.5 h): 0.78 % dose/g
% dose/g adrenals (A549 tumours; 1.0 h): 0.27 % dose/g
% dose/g adrenals (A549 tumours; 2.00 h): 0.20 % dose/g
% dose/g blood (A549 tumours; 0.25 h): 0.72 % dose/g
% dose/g blood (A549 tumours; 0.5 h): 0.35 % dose/g
% dose/g blood (A549 tumours; 1.0 h): 0.13 % dose/g
% dose/g blood (A549 tumours; 2.00 h): 0.07 % dose/g
% dose/g bone (A549 tumours; 0.25 h): 0.44 % dose/g
% dose/g bone (A549 tumours; 0.5 h): 0.37 % dose/g
% dose/g bone (A549 tumours; 1.0 h): 0.20 % dose/g
% dose/g bone (A549 tumours; 2.00 h): 0.20 % dose/g
uptake into the bones (A549 tumours; bones, at all points in time): < 0.5 % ID/g
% dose/g brain (A549 tumours; 0.25 h): 0.09 % dose/g
% dose/g brain (A549 tumours; 0.5 h): 0.10 % dose/g
% dose/g brain (A549 tumours; 1.0 h): 0.06 % dose/g
% dose/g brain (A549 tumours; 2.00 h): 0.05 % dose/g
% dose/g fat (A549 tumours; 0.25 h): 0.31 % dose/g
% dose/g fat (A549 tumours; 0.5 h): 0.08 % dose/g
% dose/g fat (A549 tumours; 1.0 h): 0.04 % dose/g
% dose/g fat (A549 tumours; 2.00 h): 0.09 % dose/g
% dose/g heart (A549 tumours; 0.25 h): 0.42 % dose/g
% dose/g heart (A549 tumours; 0.5 h): 0.20 % dose/g
% dose/g heart (A549 tumours; 1.0 h): 0.08 % dose/g
% dose/g heart (A549 tumours; 2.00 h): 0.05 % dose/g
% dose/g intestine (A549 tumours; 0.25 h): 1.27 % dose/g
% dose/g intestine (A549 tumours; 0.5 h): 0.90 % dose/g
% dose/g intestine (A549 tumours; 1.0 h): 0.52 % dose/g
% dose/g intestine (A549 tumours; 2.00 h): 0.32 % dose/g
% dose/g kidney (A549 tumours; 0.25 h): 14.38 % dose/g
% dose/g kidney (A549 tumours; 0.5 h): 6.44 % dose/g
% dose/g kidney (A549 tumours; 1.0 h): 2.01 % dose/g
% dose/g kidney (A549 tumours; 2.00 h): 0.80 % dose/g
uptake in kidneys (A549 tumours; kidneys, after 0.25 h): 14.4 % ID/g
activity in kidneys (A549 tumours; kidneys, after 1 h): 2 % ID/g
% dose/g liver (A549 tumours; 0.25 h): 0.55 % dose/g
% dose/g liver (A549 tumours; 0.5 h): 0.46 % dose/g
% dose/g liver (A549 tumours; 1.0 h): 0.21 % dose/g
% dose/g liver (A549 tumours; 2.00 h): 0.11 % dose/g
% dose/g lung (A549 tumours; 0.25 h): 1.35 % dose/g
% dose/g lung (A549 tumours; 0.5 h): 1.08 % dose/g
% dose/g lung (A549 tumours; 1.0 h): 0.50 % dose/g
% dose/g lung (A549 tumours; 2.00 h): 0.29 % dose/g
% dose/g muscle (A549 tumours; 0.25 h): 0.17 % dose/g
% dose/g muscle (A549 tumours; 0.5 h): 0.09 % dose/g
% dose/g muscle (A549 tumours; 1.0 h): 0.05 % dose/g
% dose/g muscle (A549 tumours; 2.00 h): 0.03 % dose/g
% dose/g ovary (A549 tumours; 0.25 h): 1.82 % dose/g
% dose/g ovary (A549 tumours; 0.5 h): 1.13 % dose/g
% dose/g ovary (A549 tumours; 1.0 h): 0.94 % dose/g
% dose/g ovary (A549 tumours; 2.00 h): 0.28 % dose/g
% dose/g pancreas (A549 tumours; pancreas, 0.25 h): 13.64 % dose/g
% dose/g pancreas (A549 tumours; pancreas, 0.5 h): 8.51 % dose/g
% dose/g pancreas (A549 tumours; pancreas, 1.0 h): 3.99 % dose/g
% dose/g pancreas (A549 tumours; pancreas, 2.00 h): 1.35 % dose/g
uptake in pancreas (A549 tumours; pancreas, after 0.25 h): 13.6 % ID/g
activity in pancreas (A549 tumours; pancreas, after 1 h): 4 % ID/g
% dose/g skin (A549 tumours; 0.25 h): 1.71 % dose/g
% dose/g skin (A549 tumours; 0.5 h): 2.26 % dose/g
% dose/g skin (A549 tumours; 1.0 h): 1.80 % dose/g
% dose/g skin (A549 tumours; 2.00 h): 1.01 % dose/g
% dose/g spleen (A549 tumours; 0.25 h): 2.87 % dose/g
% dose/g spleen (A549 tumours; 0.5 h): 1.76 % dose/g
% dose/g spleen (A549 tumours; 1.0 h): 1.02 % dose/g
% dose/g spleen (A549 tumours; 2.00 h): 0.53 % dose/g
% dose/g stomach (A549 tumours; 0.25 h): 3.25 % dose/g
% dose/g stomach (A549 tumours; 0.5 h): 2.64 % dose/g
% dose/g stomach (A549 tumours; 1.0 h): 0.96 % dose/g
% dose/g stomach (A549 tumours; 2.00 h): 0.39 % dose/g
% dose/g tail (A549 tumours; 0.25 h): 2.74 % dose/g
% dose/g tail (A549 tumours; 0.5 h): 3.45 % dose/g
% dose/g tail (A549 tumours; 1.0 h): 1.19 % dose/g
% dose/g tail (A549 tumours; 2.00 h): 1.69 % dose/g
% dose/g thyroid (A549 tumours; 0.25 h): 1.17 % dose/g
% dose/g thyroid (A549 tumours; 0.5 h): 1.31 % dose/g
% dose/g thyroid (A549 tumours; 1.0 h): 0.77 % dose/g
% dose/g thyroid (A549 tumours; 2.00 h): 0.42 % dose/g
% dose/g tumour (A549 tumours; tumour, 0.25 h): 2.42 % dose/g
injected dose per g in the tumour (A549 tumours; tumour, 0.25 h after injection): 2.4 % ID/g
% dose/g tumour (A549 tumours; tumour, 0.5 h): 1.82 % dose/g
% dose/g tumour (A549 tumours; tumour, 1.0 h): 1.58 % dose/g
% dose/g tumour (A549 tumours; tumour, 2.00 h): 0.97 % dose/g
tumour uptake (A549 tumours; tumour, after 1 h): 1.6 % ID/g
% dose/g uterus (A549 tumours; 0.25 h): 1.30 % dose/g
% dose/g uterus (A549 tumours; 0.5 h): 1.27 % dose/g
% dose/g uterus (A549 tumours; 1.0 h): 0.93 % dose/g
% dose/g uterus (A549 tumours; 2.00 h): 0.37 % dose/g
SMILES: N[C@@H](C[C@H](CCC[18F])C(=O)O)C(=O)O
uptake into the A549 tumour (PET/CT image analysis) (A549 tumour): high uptake
uptake into the H460 tumour (PET image analysis) (H460 tumour): high uptake
cellular uptake (FIG. 2) [1]: 840 000 cpm/100 000 cells
cellular uptake ([1]; after 30 min of incubation, A549 and H460 tumour cells): 899 000 cpm per 100 000 cells
accumulation in tumour cells compared to [F-18]FDG ([1]; after 30 minutes of incubation): accumulates to a greater degree

SMILES: N[C@@H](C[C@H](O)C(=O)O)C(=O)O [(4S)-hydroxy-L-Glu]
% Tracer uptake (A549 cells): 13.2%
inhibition of tracer uptake (competition) (A549 cells): 87%

SMILES: C[C@@H](C[C@H](N)C(=O)O)C(=O)O [(4S)-methyl-L-Glu]
% Tracer uptake (A549 cells): 7.7%
inhibition of tracer uptake (competition) (A549 cells): 92%

SMILES: C[C@H](C[C@H](N)C(=O)O)C(=O)O [(4R)-methyl-L-Glu]
% Tracer uptake (A549 cells): 33.5%
inhibition of tracer uptake (competition) (A549 cells): 64%

SMILES: N[C@@H](C[C@H](CCCF)C(=O)O)C(=O)O [4S-(3-fluoropropyl)-L-Glu, (2S,4S)-2-Amino-4-(3-fluoropropyl)pentanedioic acid]
% Tracer uptake (A549 cells): 5.4%
inhibition of tracer uptake (competition) (A549 cells): > 94%

SMILES: OC[C@H]1OC(O)[C@H]([18F])[C@@H](O)[C@@H]1O (stereo partly shown) [[F-18]FDG, [^18F]-2-Fluorodeoxyglucose, reference compound]
cellular uptake (FIG. 2) [1]: 770 000 cpm/100 000 cells

SMILES: N[C@@H](C[C@@H](O)C(=O)O)C(=O)O [(4R)-hydroxy-L-Glu]
% Tracer uptake (A549 cells): 29.6%
inhibition of tracer uptake (competition) (A549 cells): 70%

SMILES: N[C@@H](CCC(=O)O)C(=O)O [L-Glu, L-configured glutamic acid]
% Tracer uptake (A549 cells): 12.6%
inhibition of tracer uptake (competition) (A549 cells): 87%
